Test results taken from the supplement of paper PMC13380429.

What was measured:
Settings in all cases: 72 h
Caco-2 [1] = experiment: drug sensitivity score (DSS) for viability; higher = more toxic; extreme values may be limits of the assay
Vero E6 [2] = experiment: as above
HepG2 [3] = experiment: as above
U2OS [4] = experiment: as above
Calu-3 [5] = experiment: as above
Caco-2 [6] = experiment: relative viability EC50 (midpoint between 100% and the lowest measured viability); higher = less toxic
Vero E6 [7] = experiment: as above
HepG2 [8] = experiment: as above
U2OS [9] = experiment: as above
Calu-3 [10] = experiment: as above
Caco-2 [11] = experiment: cell viability relative to DMSO; higher = less toxic
Vero E6 [12] = experiment: as above
HepG2 [13] = experiment: as above
U2OS [14] = experiment: as above
Calu-3 [15] = experiment: as above

Compound | drug sensitivity score (Caco-2 [1]) | drug sensitivity score (Vero E6 [2]) | drug sensitivity score (HepG2 [3]) | drug sensitivity score (U2OS [4]) | drug sensitivity score (Calu-3 [5]) | relative viability EC50 (Caco-2 [6]) [µM] | relative viability EC50 (Vero E6 [7]) [µM] | relative viability EC50 (HepG2 [8]) [µM] | relative viability EC50 (U2OS [9]) [µM] | relative viability EC50 (Calu-3 [10]) [µM] | cell viability (Caco-2 [11]; 1 nM) [%] | cell viability (Caco-2 [11]; 10 nM) [%] | cell viability (Caco-2 [11]; 100 nM) [%] | cell viability (Caco-2 [11]; 1000 nM) [%] | cell viability (Caco-2 [11]; 10000 nM) [%] | cell viability (Vero E6 [12]; 1 nM) [%] | cell viability (Vero E6 [12]; 10 nM) [%] | cell viability (Vero E6 [12]; 100 nM) [%] | cell viability (Vero E6 [12]; 1000 nM) [%] | cell viability (Vero E6 [12]; 10000 nM) [%] | cell viability (HepG2 [13]; 1 nM) [%] | cell viability (HepG2 [13]; 10 nM) [%] | cell viability (HepG2 [13]; 100 nM) [%] | cell viability (HepG2 [13]; 1000 nM) [%] | cell viability (HepG2 [13]; 10000 nM) [%] | cell viability (U2OS [14]; 1 nM) [%] | cell viability (U2OS [14]; 10 nM) [%] | cell viability (U2OS [14]; 100 nM) [%] | cell viability (U2OS [14]; 1000 nM) [%] | cell viability (U2OS [14]; 10000 nM) [%] | cell viability (Calu-3 [15]; 1 nM) [%] | cell viability (Calu-3 [15]; 10 nM) [%] | cell viability (Calu-3 [15]; 100 nM) [%] | cell viability (Calu-3 [15]; 1000 nM) [%] | cell viability (Calu-3 [15]; 10000 nM) [%]
C[C@]12CCC(=O)C=C1C=C[C@@H]1[C@@H]2CC[C@@]2(C)[C@H]1CC[C@@]2(O)CCC(=O)O [potassium-canrenoate] | 0 | 0 | 0 | 0 | 0 | > 10 | > 10 | > 10 | > 10 | > 10 | 93.8 | 112 | 77.3 | 88.9 | 105 | 102 | 91.6 | 102 | 88 | 100 | 106 | 89.4 | 85.4 | 87.9 | 99 | 97.1 | 104 | 98.9 | 100 | 98.9 | 102 | 94.7 | 107 | 101 | 104
CC(=O)[C@H]1CC[C@H]2[C@@H]3CC=C4C[C@@H](O)CC[C@]4(C)[C@H]3CC[C@]12C [pregnenolone] | 0.3 | 0.4 | 0 | 0 | 0 | > 10 | > 10 | > 10 | > 10 | > 10 | 97.1 | 95.9 | 88.9 | 90.4 | 90.4 | 102 | 104 | 99.5 | 88.4 | 95.2 | 98.9 | 96 | 99.6 | 92.7 | 93.6 | 91.5 | 96.4 | 93.5 | 99.1 | 94.7 | 96.8 | 101 | 101 | 97.1 | 98.6
C[C@@H]1NC(C)(C)CO[C@@]1(O)c1cccc(Cl)c1 [radafaxine] | 0 | 0 | 0 | 0 | 0 | > 10 | > 10 | > 10 | > 10 | > 10 | 90.2 | 94.4 | 97.4 | 99.9 | 95 | 100 | 97.9 | 106 | 96.4 | 105 | 98.3 | 99.7 | 97.6 | 98.4 | 90.3 | 101 | 103 | 101 | 102 | 97.5 | 95.4 | 92.4 | 94.1 | 101 | 90.3
Oc1cccc(O)c1 [resorcinol] | 0 | 0 | 2.5 | 0 | 0 | > 10 | > 10 | > 10 | > 10 | > 10 | 103 | 89.8 | 95.5 | 100 | 103 | 103 | 96 | 97.4 | 96.5 | 107 | 105 | 92.9 | 90.4 | 79.2 | 89 | 97.6 | 93.8 | 96.2 | 96.8 | 103 | 97.5 | 102 | 114 | 99.2 | 103
C[C@@H](c1ccc2nccn2c1)n1nnc2ncc(-c3cnn(C)c3)nc21 [savolitinib] | 0 | 0 | 0.8 | 0 | 0 | > 10 | > 10 | > 10 | > 10 | > 10 | 103 | 92.9 | 95.4 | 100 | 91.8 | 102 | 102 | 96.5 | 98.9 | 97.4 | 99.5 | 96.2 | 96.8 | 89.4 | 83.4 | 101 | 103 | 98.9 | 96.9 | 95.8 | 99.3 | 85.2 | 94.4 | 95.5 | 95.3
Cc1cc(S(=O)(=O)O)c2c(C)ccc(C(C)C)cc1-2 [sodium-gualenate] | 0 | 0 | 0 | 0 | 0 | > 10 | > 10 | > 10 | > 10 | > 10 | 90.8 | 95.5 | 92.2 | 92.8 | 89.3 | 98 | 106 | 101 | 93.2 | 92.8 | 97.3 | 87.1 | 103 | 94.6 | 108 | 92.8 | 95.2 | 98 | 101 | 104 | 109 | 91.8 | 112 | 103 | 100
C/C=C/C=C/C(=O)O [sorbic-acid] | 0 | 0 | 0 | 0 | 0 | > 10 | > 10 | > 10 | > 10 | > 10 | 103 | 93.3 | 106 | 99 | 114 | 95.4 | 103 | 96.5 | 94.5 | 102 | 87.3 | 97.6 | 90.7 | 107 | 108 | 99.5 | 98.4 | 94.2 | 102 | 102 | 106 | 99.8 | 84.4 | 91.3 | 110
